From patent publication US20250186456A1, “PYRIMIDINE-FUSED CYCLIC COMPOUND AND PREPARATION METHOD AND USE THEREOF” (Genfleet Therapeutics (Shanghai) Inc., priority 2021, published 2025)

Columns and labels:
Assay type in all cases: cell-based, human
AGS cells (KRAS G12D) = test: Cell proliferation inhibition assay, 3D, CellTiter-Glo 3D, AGS; details: Homo sapiens, 120 h, AGS 3D sphere model, 5 days incubation
From the text: (§1) AsPC-1 was purchased from ATCC; catalog No: CRL-1682; AGS was purchased from ATCC; catalog No: CRL-1739; RPMI1640 was purchased from Gibco; catalog No: 11875-093 2235123; F12K was purchased from Gibco; catalog No: 21127-022; FBS was purchased from Gibco; catalog No: 10099-141C; trypsin (containing EDTA) was purchased from Gibco; catalog No: 25200-072; CellTiter Glo-3D was purchased from Progema; catalog No: G9683; 384-well sphere plates were purchased from Corning; catalog No: 3830; white opaque 384-well plates were purchased from Corning; catalog No: 3570; cell counters were purchased from CHEMOMETEC; model: NC-200; microplate reader was purchased from PerkinElmer; model: Envison;
(§2) AsPC-1 is an endogenous human pancreatic cancer cell containing KRAS^G12D mutation, cultured in RPMI-1640 medium containing 10% FBS; AGS is a human gastric cancer cell line containing KRAS^G12D, cultured in F-12K medium containing 10% FBS. Cells in the logarithmic growth phase were taken, digested with trypsin (containing EDTA), collected, and counted. 800 AsPC-1 cells/well or 400 AGS cells/well, respectively, were seeded in a 384-well sphere plate and cultured overnight at 5% CO2 to establish a 3D cell model. 1000X stock solutions of compounds at a 3.16-fold concentration gradient of were prepared using DMSO, diluted 100-fold into a 10X compound stock solution using the medium described above. The 10X compound stock solution was added to each cell on 2nd day after cell seeding at a final concentration of 1X and a DMSO content of 0.1%. DMSO was used as a control in the experiment, and the medium was used as blank. After the addition of the compounds, the cells were incubated for 5 days. 30 μl of CellTiter-Glo work solution was added to each well, mixed well, and incubated for 30 minutes. After standing at room temperature for 30 minutes, 40 μl of the mixed solution was transferred to an opaque 384-well plate with a white clear bottom. Luminescence chemiluminescence value was read by a microplate reader, and the cell proliferation inhibition rate (IR (%)=(RLU control-RLU compound)/(RLU control-RLU blank)×100%) was calculated. The gradiently diluted concentration of the compounds and corresponding cell proliferation inhibition rate were fitted using XLFit four-parameters method, and the IC50 value was calculated. […] The results of some exemplary compounds are shown in Table 2 (“−” represents untested).

[1] = tested on: p-ERK in AGS cells (KRAS G12D mutation); test: Cell p-ERK assay (HTRF, Advance ERK phospho-T202/Y204 kit); details: Homo sapiens; AGS cells, 3 hours incubation with compound, HTRF; read-out: AGS p-ERK IC50
Description: AGS was purchased from ATCC; catalog No: CRL-1739; F12K was purchased from Gibco; catalog No: 21127-022; FBS was purchased from Gibco; catalog No: 10099-141C; trypsin (containing EDTA) was purchased from Gibco, catalog No: 25200-072; DMSO was purchased from VWRAMRESCO; catalog No: 0231-500 ML; 96-well cell culture plates were purchased from Corning; catalog No: 3599; white opaque 96-well plates were purchased from Cisbio; catalog No: 66PL96025; Advance ERK phospho-T202/Y204 kit was purchased from Cisbio; catalog No: 64AERPEH; cell counters were purchased from CHEMOMETEC; model No: NC-200; microplate reader was purchased from PerkinElmer; model No: Envison.
AGS is an endogenous human gastric adenocarcinoma cell line containing the KRAS^G12D mutation, cultured in F12K+10% FBS medium. On the first day of the experiment, cells in the logarithmic growth phase were taken, digested with trypsin (containing EDTA), collected, and counted. Approximately 20000 cells/well were seeded in a 96-well cell culture plate and cultured overnight in an incubator with 5% CO2. 1000X stock solutions of compounds at a 3.16-fold concentration gradient were prepared using DMSO, and diluted 200-fold into a 5X compound stock solution using the medium described above. The 5X compound stock solution was added to each cell culturing well the day after cell seeding at a final concentration of 1X and a DMSO content of 0.1%. DMSO was used as a control in the experiment. After the compound was added and the incubation was kept for 3 hours, the medium in the culture wells was removed. 50 μl of Cell lysis solution (from Advance ERK phospho-T202/Y204 kit, the same below) was added to each well, mixed well, and incubated for 30 minutes and then 16 μl of the mixed solution was transferred to a white opaque 96-well plate, another 16 μl of cell lysis solution was added to a well as a blank well. After transferring, 4 μl of p-ERK HTRF antibody mixture (from Advance ERK phospho-T202/Y204 kit) was added to each well. After incubation for 4 hours, HTRF fluorescence value (RLU) was read by a microplate reader, and p-ERK level inhibition rate (IR (%)=(RLU control-RLU compound)/(RLU control-RLU blank)×100%) of the compounds was calculated. The concentration of the compounds and corresponding cell p-ERK level inhibition rate were fitted using Prism 8 four-parameters method, and the IC50 value was calculated.

[2] = tested on: AsPC-1 cells (KRAS G12D mutation); test: Cell proliferation inhibition assay, 3D, CellTiter-Glo 3D, AsPC-1; details: Homo sapiens, ASPC1, 120 h, AsPC-1 3D sphere model, 5 days incubation
From the text: as §1, §2

Row | SMILES | IC50 (AGS cells (KRAS G12D)) | IC50 [1] | IC50 [2]
1 | C#Cc1c(F)ccc2cc(O)cc(-c3nc4c5c(nc(OCC67CC(=C)CN6CC(=C)C7)nc5c3F)N3C[C@H]5CC[C@H](N5)[C@H]3CO4)c12 [Example Z380, 4-((5aS,6S,9R)-12-((2,6-Dimethylenetetrahydro-1H-Pyrrolizin-7a (5H)-Yl)Methoxy)-1-Fluoro-5a,6,7,8,9,10-Hexahydro-5H-4-Oxa-3,10a,11,13,14-Pentaaza-6,9-Methanonaphtho[1,8-Ab]Heptalen-2-Yl)-5-Ethynyl-6-Fluoronaphthalen-2-Ol] | 2.68 nM | 0.78 nM | 26.2 nM
2 | C#Cc1cccc2cc(O)cc(-c3nc4c5c(nc(OC[C@@]67CCCN6C[C@H](F)C7)nc5c3F)N3C[C@H]5CC[C@H](N5)[C@H]3[C@H](C)O4)c12 [Example Z384, 5-ethynyl-4-((5S,5aS,6S,9R)-1-fluoro-12-(((2R,7aS)-2-fluorotetrahydro-1H-pyrrolizin-7a (5H)-yl)methoxy)-5-methyl-5a,6,7,8,9,10-hexahydro-5H-4-oxa-3,10a, 11,13,14-pentaaza-6,9-methanonaphtho[1,8-ab]heptalen-2-yl) naphthalen-2-ol] | 1.5 nM | 0.65 nM | 7.34 nM
3 | C#Cc1cccc2cc(O)cc(-c3nc4c5c(nc(OC[C@@]67CCCN6C[C@H](F)C7)nc5c3F)N3C[C@H]5CC[C@H](N5)[C@H]3[C@H](CC)O4)c12 [Example Z386, 4-((5S,5aS,6S,9R)-5-Ethyl-1-Fluoro-12-(((2R,7aS)-2-Fluorotetrahydro-1H-Pyrrolizin-7a (5H)-Yl)Methoxy)-5a,6,7,8,9,10-Hexahydro-5H-4-Oxa-3,10a,11,13,14-Pentaaza-6,9-Methanonaphtho[1,8-Ab]Heptalen-2-Yl)-5-Ethynylnaphthalen-2-Ol] | 2.4 nM | 0.76 nM | 14.7 nM
4 | C#Cc1cccc2cccc(-c3nc4c5c(nc(OC[C@@]67CCCN6C[C@H](F)C7)nc5c3F)N3C[C@H]5CC[C@H](N5)[C@H]3[C@H](CC)O4)c12 [Example Z387, (5S,5aS,6S,9R)-5-ethyl-2-(8-ethynylnaphthalen-1-yl)-1-fluoro-12-(((2R,7aS)-2-fluorotetrahydro-1H-pyrrolizin-7a (5H)-yl)methoxy)-5a,6,7,8,9,10-hexahydro-5H-4-oxa-3,10a, 11,13,14-pentaaza-6,9-methanonaphtho[1,8-ab]heptalene] | 73.3 nM | 50.2 nM | 202 nM
5 | C#Cc1c(F)ccc2cccc(-c3nc4c5c(nc(OCC67CC(=C)CN6CC(=C)C7)nc5c3F)N3C[C@H]5CC[C@H](N5)[C@H]3[C@H](C)O4)c12 [Example Z388, (5S,5aS,6S,9R)-12-((2,6-dimethylenetetrahydro-1H-pyrrolizin-7a (5H)-yl)methoxy)-2-(8-ethynyl-7-fluoronaphthalen-1-yl)-1-fluoro-5-methyl-5a,6,7,8,9,10-hexahydro-5H-4-oxa-3,10a, 11, 13,14-pentaaza-6,9-methanonaphtho[1,8-ab]heptalene] | 53.1 nM | 17.9 nM | 191 nM
6 | C#Cc1cc(F)cc2cccc(-c3nc4c5c(nc(OCC67CC(=C)CN6CC(=C)C7)nc5c3F)N3C[C@H]5CC[C@H](N5)[C@H]3[C@H](C)O4)c12 [Example Z550, (5S,5aS,6S,9R)-12-((2,6-dimethylenetetrahydro-1H-pyrrolizin-7a (5H)-yl)methoxy)-2-(8-ethynyl-6-fluoronaphthalen-1-yl)-1-fluoro-5-methyl-5a,6,7,8,9,10-hexahydro-5H-4-oxa-3,10a, 11,13,14-pentaaza-6,9-methanonaphtho[1,8-ab]heptalene] | 109 nM | 91.2 nM | 394 nM
7 | C#Cc1cccc2cccc(-c3nc4c5c(nc(OCC67CC(=C)CN6CC(=C)C7)nc5c3F)N3C[C@H]5CC[C@H](N5)[C@H]3[C@H](C)O4)c12 [Example Z551, (58,5aS,6S,9R)-12-((2,6-dimethylenetetrahydro-1H-pyrrolizin-7a (5H)-yl)methoxy)-2-(8-ethynylnaphthalen-1-yl)-1-fluoro-5-methyl-5a,6,7,8,9,10-hexahydro-5H-4-oxa-3,10a,11,13,14-pentaaza-6,9-methanonaphtho[1,8-ab]heptalene] | 45.4 nM | 61 nM | 170 nM
8 | C#Cc1c(F)ccc2cc(O)cc(-c3nc4c5c(nc(OC[C@@]67CCCN6C[C@H](F)C7)nc5c3F)N3C[C@H]5CC[C@H](N5)[C@H]3[C@H](C)O4)c12 [Example Z552, 5-ethynyl-6-fluoro-4-((5S,5aS,6S,9R)-1-fluoro-12-(((2R,7aS)-2-fluorotetrahydro-1H-pyrrolizin-7a (5H)-yl)methoxy)-5-methyl-5a,6,7,8,9,10-hexahydro-5H-4-oxa-3,10a,11,13,14-pentaaza-6,9-methanonaphtho[1,8-ab]heptalen-2-yl) naphthalen-2-ol] | 0.53 nM | 0.67 nM | 5.77 nM
9 | C#Cc1c(F)ccc2cc(O)cc(-c3nc4c5c(nc(OCC67CC(=C)CN6CC(=C)C7)nc5c3F)N3C[C@H]5CC[C@H](N5)[C@H]3[C@H](C)O4)c12 [Example Z553, 4-((5S,5aS,6S,9R)-12-((2,6-dimethylenetetrahydro-1H-pyrrolizin-7a (5H)-yl)methoxy)-1-fluoro-5-methyl-5a,6,7,8,9,10-hexahydro-5H-4-oxa-3,10a, 11,13,14-pentaaza-6,9-methanonaphtho[1,8-ab]heptalen-2-yl)-5-ethynyl-6-fluoronaphthalen-2-ol] | 0.53 nM | 0.48 nM | 9.13 nM
10 | C#Cc1c(F)ccc2cccc(-c3nc4c5c(nc(OCC67CCCN6CC(=C)C7)nc5c3F)N3C[C@H]5CC[C@H](N5)[C@H]3[C@H](C)O4)c12 (stereo partly drawn) [Example Z590, (5S,5aS,6S,9R)-2-(8-ethynyl-7-fluoronaphthalen-1-yl)-1-fluoro-5-methyl-12-((2-methylenetetrahydro-1H-pyrrolizin-7a (5H)-yl)methoxy)-5a,6,7,8,9,10-hexahydro-5H-4-oxa-3,10a,11,13,14-pentaaza-6,9-methanonaphtho[1,8-ab]heptalene] | 17.3 nM | 7.11 nM | 114 nM
11 | C#Cc1c(Cl)ccc2cccc(-c3nc4c5c(nc(OCC67CCCN6CC(=C)C7)nc5c3F)N3C[C@H]5CC[C@H](N5)[C@H]3[C@H](C)O4)c12 (stereo partly drawn) [Example Z593, (5S,5aS,6S,9R)-2-(7-chloro-8-ethynylnaphthalen-1-yl)-1-fluoro-5-methyl-12-((2-methylenetetrahydro-1H-pyrrolizin-7a (5H)-yl)methoxy)-5a,6,7,8,9,10-hexahydro-5H-4-oxa-3,10a, 11,13, 14-pentaaza-6,9-methanonaphtho[1,8-ab]heptalene] | 35.4 nM | 29 nM | 78.8 nM
